{"source": "patent US12569468B2", "about": "“Use of palovarotene in treatment against HBV virus” (YANG SHENG TANG COMPANY, LTD., priority 2020, dated 2026)", "key": {"[1]": {"test_system": "HepG2 hNTCP 2B1", "test": "Safety assessment, CCK-8 cell activity, HepG2-hNTCP 2B1", "format": "cell-based", "conditions": "1 μM, 5 μM and 25 μM, 6 days treatment", "description": "This experiment was carried out in a 96-well culture plate, with 8×10^4 corresponding cells plated in each well, and the corresponding medium volume was 100 μL, in which each drug to be tested in the HepG2-hNTCP 2B1, HepaRG M14A and primary hepatocyte experimental groups had three final concentrations of 1 μM, 5 μM and 25 μM, each drug to be tested in the HepAD38 cell experimental group had two final concentrations of 1 μM and 5 μM (the drug was diluted with the corresponding medium to the final concentrations, specifically please refer to Example 1, Example 2, Example 4 and Example 5), and to the blank group the same volume of culture medium without drug was added. After the cells had grown to a suitable density, drug was added to perform treatment for 6 days, during which, the medium was changed every two days with fresh drug-containing medium. After the drug treatment, 110 μL of medium containing Beyotime CCK-8 cell activity detection reagent (purchased from Beyotime, Art. No. C0038) (the volume ratio of medium to CCK-8 reagent was 100:10) was used for replacement, the cells were incubated at 37° C. for 30 min, and then all the supernatant was collected for detection of absorbance. The absorbance value was read on PHOMO microplate reader purchased from Zhengzhou Autobio."}, "[2]": {"test_system": "HBV", "test": "HBcAg immunofluorescence detection in infected HepG2-hNTCP 2B1", "format": "cell-based, hepatitis B virus", "conditions": "HepG2-hNTCP 2B1 cells after infection; 5 μM, day 6 to day 12", "description": "Southern blot experiment was carried out on a 10 cm^2 culture plate. About 5×10^6 HepG2-hNTCP 2B1 cells were plated in each 10 cm^2 culture plate, and medium B was added. After the cells adhered, medium A was used for replacement to perform the induction with Doxycycline during the whole experiment. HBV infection was performed 4 days after the induction with Doxycycline, and the amount of HBV for infection was 1000 MOI. Before infection, HBV was diluted in medium C to obtain HBV solution, and the infection volume was 5 mL. During infection, the cell supernatant was first removed by suction, the HBV solution was added to the cells, the cells were incubated for 24 hours, then the supernatant was collected as the sample of Day 0. Then the cells were washed three times with PBS, and fresh medium A was used for replacement. After that, the supernatant was collected every two days for detection, fresh medium A was used for replacement. […]\nThe HBcAg immunofluorescence staining involved in this experiment was performed directly on adherent cells. […] Photographing: Photographing was performed with a high-content confocal microscope (PerkinElmer, Operetta CLS), and the mean fluorescence intensity of green fluorescence was analyzed."}, "[3]": {"test_system": "HBV", "test": "Therapeutic effect on HepG2-hNTCP 2B1 infected by HBV (drug from day 6 after infection)", "format": "cell-based, hepatitis B virus", "conditions": "drug treatment from 6 days after HBV infection to day 12, Palovarotene at high concentrations (p<0.05), ETV 1 μM, vs blank group", "description": "This experiment was carried out in a 24-well culture plate. […] About 1.5×10^5 HepG2-hNTCP 2B1 cells were plated in each well, and 500 μL of medium B was added to each well. After the cells adhered, medium A was used for replacement to perform the induction with Doxycycline during the whole experiment.\n4 Days after the induction with Doxycycline, HBV infection was performed, and the amount of HBV in each well was 100 MOI. Before infection, HBV was diluted in medium C to obtain HBV solution, and the infection volume was 250 μL per well. During infection, the cell supernatant was first removed by suction, the HBV solution was added to the cells, and the cells were incubated for 24 hours, then the supernatant was collected as the sample of Day 0. Then the cells were washed three times with PBS, and fresh medium C was used for replacement. After that, the supernatant was collected every two days for detection, fresh medium C was used for replacement. On the 6th day, fresh drug-containing medium A was used for replacement to start drug treatment, then the supernatant was collected every two days for detection, and fresh drug-containing medium A was used for replacement, until the 12th day, all the supernatant and cells were collected for relevant detection. The detection items included HBsAg, HBeAg, HBV DNA, HBV cccDNA, and for the detection method, please refer to Example 1."}}, "data": [{"smiles": "CC1(C)CCC(C)(C)c2cc(Cn3cccn3)c(/C=C/c3ccc(C(=O)O)cc3)cc21", "note": "[Palovarotene]", "values": [{"measurement": "CCK-8 absorbance value (cell activity) vs blank group", "setting": "[1]", "value": "not significantly different"}, {"measurement": "positive rate of HBcAg (immunofluorescence)", "setting": "[2]", "value": "significantly reduce the positive rate"}, {"measurement": "HBeAg", "setting": "[3]", "value": "significant inhibitory effect"}, {"measurement": "level of HBV DNA", "setting": "[3]", "value": "significantly reduce"}, {"measurement": "level of HBV cccDNA", "setting": "[3]", "value": "significantly reduce"}]}]}
